Data published in patent US20250171438A1 (Agios Pharmaceuticals, Inc., priority 2022, published 2025).

target: T1, human PAH with the R408W mutation (Homo sapiens, UniProt P00439, R408W); assay: Cell Based Phenylalanine Flux Assay; settings: A375 cells expressing human R408W PAH; 24 hrs compound incubation; 13C-Tyrosine by LC-MS; average where tested multiple times; read-out: AC50
T1 construct: expressed in transfected cells
T1 sequence (P00439 1-452 R408W): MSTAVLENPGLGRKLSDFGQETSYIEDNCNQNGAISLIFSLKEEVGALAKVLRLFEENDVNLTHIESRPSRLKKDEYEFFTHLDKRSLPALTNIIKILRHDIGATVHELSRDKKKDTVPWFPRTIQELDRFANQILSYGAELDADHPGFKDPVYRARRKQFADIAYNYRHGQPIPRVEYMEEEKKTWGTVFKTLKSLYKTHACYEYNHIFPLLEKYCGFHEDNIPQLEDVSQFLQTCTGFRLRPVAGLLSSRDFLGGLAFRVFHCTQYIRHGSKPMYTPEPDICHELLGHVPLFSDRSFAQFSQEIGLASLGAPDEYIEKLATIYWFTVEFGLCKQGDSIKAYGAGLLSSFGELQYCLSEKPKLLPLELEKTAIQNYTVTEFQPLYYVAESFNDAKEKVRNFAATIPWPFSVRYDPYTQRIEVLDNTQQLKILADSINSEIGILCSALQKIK

First: O=C(c1ccnn1-c1ccccc1)N1CCc2[nH]cnc2[C@@H]1c1nc2c(F)cccc2s1 [Example 1606, (R)-(4-(4-fluorobenzo[d]thiazol-2-yl)-6,7-dihydro-1H-imidazo[4,5-c]pyridin-5(4H)-yl)(1-phenyl-1H-pyrazol-5-yl)methanone]
Second: Cn1nccc1C(=O)N1CCc2[nH]cnc2[C@@H]1c1nc2c(F)cccc2s1 [Example 1604, (R)-(4-(4-fluorobenzo[d]thiazol-2-yl)-6,7-dihydro-1H-imidazo[4,5-c]pyridin-5(4H)-yl)(1-methyl-1H-pyrazol-5-yl)methanone]
The AC50 of the first is lower: 1000 to 5000 nM for the first, > 5000 nM for the second.

Compared with O=C(c1nnc(-c2cc[nH]n2)o1)N1CCc2[nH]cnc2[C@H]1c1nc2ccccc2s1 [Example 1899], O=C(c1nnc(-c2ccc(C(F)(F)F)cc2)o1)N1CCc2[nH]cnc2[C@@H]1c1nc2ccccc2s1 [Example 1767, (R)-(4-(benzo[d]thiazol-2-yl)-6,7-dihydro-1H-imidazo[4,5-c]pyridin-5(4H)-yl)(5-(4-(trifluoromethyl)phenyl)-1,3,4-oxadiazol-2-yl)methanone] is higher in AC50: < 500 nM for the first, 1000 to 5000 nM for the second.

First: CCc1nnc(CCC(=O)N2CCc3[nH]cnc3[C@@H]2c2nc3ccccc3s2)s1 [Example 1116, (R)-1-(4-(benzo[d]thiazol-2-yl)-6,7-dihydro-1H-imidazo[4,5-c]pyridin-5(4H)-yl)-3-(5-ethyl-1,3,4-thiadiazol-2-yl)propan-1-one]
Second: Cc1nnc(CCC(=O)N2CCc3[nH]cnc3[C@H]2c2nc3ccccc3s2)s1 [Example 1019]
The AC50 of the first is higher: > 5000 nM for the first, 500 to 1000 nM for the second.

First: CC(C)(O)c1nc(C(F)(F)F)c(C(=O)N2CCCc3[nH]cnc3[C@@H]2c2nc3ccccc3s2)o1 [Example 2124, (R)-(4-(benzo[d]thiazol-2-yl)-7,8-dihydroimidazo[4,5-c]azepin-5(1H,4H,6H)-yl)(2-(2-hydroxypropan-2-yl)-4-(trifluoromethyl)oxazol-5-yl)methanone]
Second: Cc1nc(C)c(C(=O)N2CCc3[nH]cnc3[C@@H]2c2nc3ccccc3s2)o1 [Example 1164, (R)-(4-(benzo[d]thiazol-2-yl)-6,7-dihydro-1H-imidazo[4,5-c]pyridin-5(4H)-yl)(2,4-dimethyloxazol-5-yl)methanone]
The AC50 of the first is lower: 1000 to 5000 nM for the first, > 5000 nM for the second.

Compared with O=C(c1cncs1)N1CCc2[nH]cnc2[C@@H]1c1nc2ccccc2s1 [Example 1060, (R)-(4-(benzo[d]thiazol-2-yl)-6,7-dihydro-1H-imidazo[4,5-c]pyridin-5(4H)-yl)(thiazol-5-yl)methanone], COCc1ncc(C(=O)N2CCc3[nH]cnc3[C@@H]2c2nc3ccccc3s2)s1 [Example 1186, (R)-(4-(benzo[d]thiazol-2-yl)-6,7-dihydro-1H-imidazo[4,5-c]pyridin-5(4H)-yl)(2-(methoxymethyl)thiazol-5-yl)methanone] is lower in AC50: > 5000 nM for the first, 1000 to 5000 nM for the second.

First: O=C(c1cnc(-c2ncccc2F)s1)N1CCc2[nH]cnc2[C@@H]1c1nc2ccccc2s1 [Example 1374, (R)-(4-(benzo[d]thiazol-2-yl)-6,7-dihydro-1H-imidazo[4,5-c]pyridin-5(4H)-yl)(2-(3-fluoropyridin-2-yl)thiazol-5-yl)methanone]
Second: O=C(c1nc2ccccc2[nH]1)N1CCc2[nH]cnc2[C@@H]1c1nc2ccccc2s1 [Example 1132, (R)-(1H-benzo[d]imidazol-2-yl)(4-(benzo[d]thiazol-2-yl)-6,7-dihydro-1H-imidazo[4,5-c]pyridin-5(4H)-yl)methanone]
The AC50 of the first is lower: 500 to 1000 nM for the first, 1000 to 5000 nM for the second.

Compared with O=C(c1nncs1)N1CCc2[nH]cnc2[C@@H]1c1nc2c(F)cccc2s1 [Example 1269, (R)-(4-(4-fluorobenzo[d]thiazol-2-yl)-6,7-dihydro-1H-imidazo[4,5-c]pyridin-5(4H)-yl)(1,3,4-thiadiazol-2-yl)methanone], CC(C)(O)c1nc(Br)c(C(=O)N2CCc3[nH]cnc3[C@H]2c2nc3c(F)cccc3s2)o1 [Example 1897, (S)-(4-bromo-2-(2-hydroxypropan-2-yl)oxazol-5-yl)(4-(4-fluorobenzo[d]thiazol-2-yl)-6,7-dihydro-1H-imidazo[4,5-c]pyridin-5(4H)-yl)methanone] is lower in AC50: 1000 to 5000 nM for the first, < 500 nM for the second.

First: O=C(CCc1nccs1)N1CCc2[nH]cnc2[C@H]1c1nc(Br)cs1 [Example 2150]
Second: O=C(CC1CC1(F)F)N1CCc2[nH]cnc2[C@@H]1c1nc2ccccc2s1 (stereo partly drawn) [Example 1273, 1-((R)-4-(benzo[d]thiazol-2-yl)-6,7-dihydro-1H-imidazo[4,5-c]pyridin-5(4H)-yl)-2-(2,2-difluorocyclopropyl)ethanone]
The AC50 of the first is lower: 1000 to 5000 nM for the first, > 5000 nM for the second.

First: Cn1nc(C(C)(C)C#N)nc1C(=O)N1CCc2[nH]cnc2[C@H]1c1nc2ccccc2s1 [Example 2045, (S)-2-(5-(4-(benzo[d]thiazol-2-yl)-4,5,6,7-tetrahydro-1H-imidazo[4,5-c]pyridine-5-carbonyl)-1-methyl-1H-1,2,4-triazol-3-yl)-2-methylpropanenitrile]
Second: O=C(c1oc(C2CC2)nc1C(F)F)N1CCc2[nH]cnc2[C@@H]1c1nc2ccccc2s1 [Example 1622, (R)-(4-(benzo[d]thiazol-2-yl)-6,7-dihydro-1H-imidazo[4,5-c]pyridin-5(4H)-yl)(2-cyclopropyl-4-(difluoromethyl)oxazol-5-yl)methanone]
The AC50 of the first is higher: 1000 to 5000 nM for the first, < 500 nM for the second.

Compared with Cc1ncoc1C(=O)N1C[C@H](C)c2[nH]cnc2[C@H]1c1nc2ccccc2s1 [Example 1546, ((4S,7S)-4-(benzo[d]thiazol-2-yl)-7-methyl-1,4,6,7-tetrahydro-5H-imidazo[4,5-c]pyridin-5-yl)(4-methyloxazol-5-yl)methanone], O=C(c1nnc(N2CCC(F)CC2)o1)N1CCc2[nH]cnc2[C@@H]1c1nc2ccccc2s1 [Example 1592, (R)-(4-(benzo[d]thiazol-2-yl)-6,7-dihydro-1H-imidazo[4,5-c]pyridin-5(4H)-yl)(5-(4-fluoropiperidin-1-yl)-1,3,4-oxadiazol-2-yl)methanone] is higher in AC50: 500 to 1000 nM for the first, 1000 to 5000 nM for the second.

First: O=C(c1ccon1)N1CCc2[nH]cnc2[C@H]1c1nc2ccc(Br)cc2[nH]1 [Example 981, (S)-(4-(6-bromo-1H-benzo[d]imidazol-2-yl)-6,7-dihydro-1H-imidazo[4,5-c]pyridin-5(4H)-yl)(isoxazol-3-yl)methanone]
Second: CC(F)c1nc(C(F)F)c(C(=O)N2CCc3[nH]cnc3[C@@H]2c2nc3c(F)cccc3s2)o1 (stereo partly drawn) [Example 2076, (4-(difluoromethyl)-2-(1-fluoroethyl)oxazol-5-yl)((R)-4-(4-fluorobenzo[d]thiazol-2-yl)-6,7-dihydro-1H-imidazo[4,5-c]pyridin-5(4H)-yl)methanone]
The AC50 of the first is lower: < 500 nM for the first, 500 to 1000 nM for the second.

same assay, conditions: A375 cells expressing human R408W PAH; 24 hrs with compound; 13C-Tyrosine by LC-MS; average where tested multiple times; read-out: AC50

Compared with O=C(Cc1nncs1)N1CCc2[nH]cnc2C1c1nc2ccccc2s1 (stereo not drawn), O=C(c1nnc(N2CC(F)C2)o1)N1CCc2[nH]cnc2C1c1nc2ccccc2s1 (stereo not drawn) is lower in AC50: > 5000 nM for the first, 1000 to 5000 nM for the second.

O=C(c1ncn2ccccc12)N1CCc2[nH]cnc2C1c1nc2ccc(Cl)cc2[nH]1 (stereo not drawn) and O=C(c1nc2ccncc2s1)N1CCc2[nH]cnc2C1c1nc2ccccc2[nH]1 (stereo not drawn) cannot be ordered by AC50: > 5000 nM for the first, > 5000 nM for the second.

First: O=C(c1cnn2cccc(F)c12)N1CCc2[nH]cnc2C1c1nc2ccccc2s1 (stereo not drawn)
Second: O=C(N1CCC(c2ccccc2)C1)N1CCc2[nH]cnc2C1c1nc2ccccc2s1 (stereo not drawn)
The AC50 of the first is higher: > 5000 nM for the first, 1000 to 5000 nM for the second.

Cc1nnc(CCC(=O)N2CCc3nc[nH]c3C2c2nc3ccc(F)cc3s2)s1 (stereo not drawn) and O=C(C1CCC1)N1CCc2[nH]cnc2[C@H]1c1nc2ccccc2[nH]1 [(S)-(4-(1H-benzo[d]imidazol-2-yl)-6,7-dihydro-1H-imidazo[4,5-c]pyridin-5(4H)-yl)(cyclobutyl)methanone] fall in the same range of AC50: 1000 to 5000 nM for the first, 1000 to 5000 nM for the second.
